Measured values as given in patent publication US8133881B2, “Carbohydrate conjugates to prevent abuse of controlled substances” (Shire LLC, priority 2003, dated 2012).

How the values were obtained:
[1] = Oral bioavailability of Hydrocodone vs. Galactose-Hydrocodone
[2] = Intranasal bioavailability of Hydrocodone vs. Galactose Hydrocodone
[3] = Intranasal bioavailability of Hydrocodone vs. Ribose Hydrocodone
[4] = Oral bioavailability of Hydrocodone vs. Ribose-Hydrocodone (serum levels)
[5] = Kitchen test stability of conjugate (release of hydrocodone on heating in pH solutions); assay type: physicochemical; details: for Percent Hydrocodone released: 80-90° C.
Method: To determine the accessibility of active narcotic from the synthetic conjugates, an attempt was made to release the narcotic from its conjugate. In a kitchen test, we determined the stability of the conjugates when subjected to conditions that would be available to any drug addict. Thus, the kitchen test is a model of “street-safeness” for the narcotics conjugates. The conjugates were heated in a water bath (80-90° C.) in a pH range (1-12) over a 1 hour time course. This pH range constitutes about any solution that can be found commercially at any grocery or drug store. The release of the narcotic from the conjugate was monitored by HPLC and quantified with a dose-response calibration curve of the parent narcotic.
Using only solutions that would be available to an addict, conjugates were dissolved in water. Water insoluble conjugates were either (a) dissolved in a minimum amount (≦5% v/v) of organic solvent [e.g., DMSO, methanol, or ethanol], (b) added as a suspension to the assay, or (c) dissolved completely in chloroform, and aliquoted to a test tube where the chloroform is evaporated, leaving only a known amount of conjugate. Upon preparation of the conjugate, the conjugate is added to the various pH solutions and heated for 0, 5, 15, or 60 minutes. At the indicated time point, each test tube was removed from the water bath and neutralized with a chilled phosphate buffer (100 mM, pH 7, 4° C.).
The kitchen test proceeds as follows: • 1. pH solutions [1, 4, 7, 9, 12] prepared with HPLC grade H2O and titrated with NaOH or HCl • 2. prepare hot water bath, keeping temperature at 80-90° C. • 3. conjugates prepared at a concentration of 1 mg/ml as indicated above • 4. 250 μl of conjugate added to 750 μl of pH solutions (final assay volume is 1 ml; if conjugate has been evaporated from CHCl3, add 1 ml of pH solution to test tube) • 5. immediately following the addition of conjugate to pH solution, place test tube in hot water bath (80-90° C.) • 6. at indicated time point, remove test tubes from heat and neutralize with 1 ml of chilled phosphate buffer [0 time point is not heated, but immediately neutralized with phosphate buffer after the addition of conjugate to each pH solution] • 7. before aliquoting each sample for HPLC analysis, the volume of each tube is adjusted to 2 ml to account for changes in concentration from evaporation
Following HPLC analysis, the amount of released narcotic was extrapolated from a calibration curve of the parent drug and plotted as % narcotic released (w/w, based upon theoretical loading of conjugated species) vs. time.

[6] = Intravenous bioavailability of Hydrocodone vs. Ribose Hydrocodone

For `COc1ccc2c3c1OC1C(OC(=O)OC[C@H]4O[C@H](O)[C@H](O)[C@@H](O)[C@H]4O)=CCC4[C@@H](C2)[N@@H+](C)CC[C@]314.[Cl-]` (some centres unmarked) [Galactose-Hydrocodone, Galacto-Hydrocodone], the “Bioavailability compared to Hydrocodone-Bitartarate” value [1] was “approached that of Hydrocodone-Bitaratarate” and the “Bioavailability compared to Hydrocodone-Bitartarate” value [2] was “marginally decreased”.
For `COc1ccc2c3c1OC1C(OC(=O)OC[C@H]4OC(O)C(O)[C@H]4O)=CCC4[C@@H](C2)[N@@H+](C)CC[C@]314.[Cl-]` (some centres unmarked) [Ribose-Hydrocodone, Ribo-Hydrocodone], the “Bioavailability compared to Hydrocodone-Bitartarate” value [3] was “decreased”, the “Bioavailability compared to Hydrocodone-Bitartarate” value [4] was “approximately equal” and the “Percent Hydrocodone released” value ([5]; pH 1, 5 minutes, relative to zero hour level of free Hydrocodone) was 8%. For the same compound, the “Percent Hydrocodone released” value ([5]; pH 1, 15 minutes, relative to zero hour level) was 18%, the “Percent Hydrocodone released” value ([5]; pH 1, 60 minutes, relative to zero hour level) was 27.8% and the “Percent Hydrocodone released” value ([5]; pH 4, 5 minutes, relative to zero hour level) was 11%. The “Percent Hydrocodone released” value ([5]; pH 4, 15 minutes, relative to zero hour level) was 12.6%, the “Percent Hydrocodone released” value ([5]; pH 4, 60 minutes, relative to zero hour level) was 19.6% and the “Percent Hydrocodone released” value ([5]; pH 7, 5 minutes, relative to zero hour level) was 12%. The “Percent Hydrocodone released” value ([5]; pH 7, 15 minutes, relative to zero hour level) was 16%, the “Percent Hydrocodone released” value ([5]; pH 7, 60 minutes, relative to zero hour level) was 23.4% and the “Percent Hydrocodone released” value ([5]; pH 9, 5 minutes, relative to zero hour level) was 9%. The “Percent Hydrocodone released” value ([5]; pH 9, 15 minutes, relative to zero hour level) was 11%, the “Percent Hydrocodone released” value ([5]; pH 9, 60 minutes, relative to zero hour level) was 21% and the “hydrocodone released from the conjugate” value ([5]; pH 12) was “less than half”. The “Percent Hydrocodone released” value ([5]; pH 12, 5 minutes, relative to zero hour level) was 44%, the “Percent Hydrocodone released” value ([5]; pH 12, 15 minutes, relative to zero hour level) was 33% and the “Percent Hydrocodone released” value ([5]; pH 12, 60 minutes, relative to zero hour level) was 41.1%. The “amount of hydrocodone released” value ([5]; pHs other than pH 12, after one hour at 90° C.) was ≤ 27.8%, the “Bioavailability compared to Hydrocodone-Bitartarate” value [6] was “decreased” and the “clearance rate” value [6] was “increased clearance rate”.
